# Assay results reported in patent publication US6310095A, “Inhibitors of protein isoprenyl transferases” (University of Pittsburgh, priority 1998, dated 2001).
# Molecular target: T1, protein farnesyltransferase (Rattus norvegicus, UniProt Q02293+Q04631)
# T1 construct: Rat brain protein farnesyltransferase activity is measured; from tissue; host or cells: rat brain; purified according to Reiss et al., Cell 62:81-88 (1990), steps one through three
# Assay: in vitro inhibition of protein farnesyltransferase (scintillation proximity assay, biotin-K Ras B fragment)
# Assay type: biochemical
# Conditions: at 1 × 10^-5 M
# Excerpt: The ability of the compounds of the invention to inhibit protein farnesyltransferase or protein geranylgeranyltransferase can be measured according to the method of Moores, et al., J. Biol. Chem. 266: 14603 (1991) or the method of Vogt, et al., J. Biol. Chem. 270:660-664 (1995). In addition, procedures for determination of the inhibition of farnesylation of the oncogene protein Ras are described by Goldstein, et al., J. Biol. Chem., 266:15575-15578 (1991) and by Singh in U.S. Pat. No. 5,245,061.
# In addition, in vitro inhibition of protein farnesyltransferase may be measured by the following procedure. Rat brain protein farnesyltransferase activity is measured using an Amersham Life Science commercial scintillation proximity assay kit and substituting a biotin-K Ras B fragment (biotin-[…]CO2 H), 0.1 mM final concentration, for the biotin-lamin substrate provided by Amersham. The enzyme is purified according to Reiss, Y., et al., Cell, 62: 81-88 (1990), utilizing steps one through three.
# The % inhibition of protein farnesyltransferase was determined for representative compounds of the invention.
row,SMILES,inhibition at 10 µM
1,CCn1cc(NCc2ccc(C(=O)N[C@@H](CCSC)C(=O)O)c(-c3ccccc3)c2)c(=O)n1CC [Example 364],69%
2,CSCC[C@H](NC(=O)c1ccc(CNCCN2CCOCC2)cc1-c1ccccc1)C(=O)O [Example 365],97%
3,CSCC[C@H](NC(=O)c1ccc(CNCCN2CCCCC2)cc1-c1ccccc1)C(=O)O [Example 366],83%
4,CSCC[C@H](NC(=O)c1ccc(CNCCc2cccs2)cc1-c1ccccc1)C(=O)O [Example 369],87%
5,CSCC[C@H](NC(=O)c1ccc(CNc2cc[nH]n2)cc1-c1ccccc1)C(=O)O [Example 370],86%
6,CSCC[C@H](NC(=O)c1ccc(CNc2nnc(C)s2)cc1-c1ccccc1)C(=O)O [Example 371],66%
7,CSCC[C@H](NC(=O)c1ccc(CNc2cc(C)on2)cc1-c1ccccc1)C(=O)O [Example 372],69%
8,CSCC[C@H](NC(=O)c1ccc(CNc2cc(C)ns2)cc1-c1ccccc1)C(=O)O [Example 373],76%
9,CSCC[C@H](NC(=O)c1ccc(CNc2nccs2)cc1-c1ccccc1)C(=O)O [Example 374],61%
10,CSCC[C@H](NC(=O)c1ccc(CNCCCN2CCOCC2)cc1-c1ccccc1)C(=O)O [Example 377],71%
11,CSCC[C@H](NC(=O)c1ccc(CNc2cc(C(C)(C)C)[nH]n2)cc1-c1ccccc1)C(=O)O [Example 381],79%

# Same assay, conditions: at 1 × 10^-6 M
row,SMILES,% inhibition of farnesyltransferase
1,CSCC[C@H](NC(=O)c1ccc(CN(C(C)C)C2(Cc3ccccc3)CCCC2)cc1-c1ccccc1C)C(=O)O [Example 343],72%
2,CSCC[C@H](NC(=O)c1ccc(CN(C(C)C)C2(CC3CCCCC3)CCCC2)cc1-c1ccccc1C)C(=O)O [Example 344],95%
3,Cc1ccccc1-c1cc(CN(C2CC2)C2(Cc3ccccc3)CCCC2)ccc1C(=O)N[C@@H](CCS(C)(=O)=O)C(=O)O [Example 345],91%
4,Cc1ccccc1-c1cc(CN(C2CC2)C2(CC3CCCCC3)CCCC2)ccc1C(=O)N[C@@H](CCS(C)(=O)=O)C(=O)O [Example 346],98%
5,CSCC[C@H](NC(=O)c1ccc(CN2C(=O)OC[C@@H]2CC2CCCCC2)cc1-c1ccccc1C)C(=O)O [Example 349],99%
6,CSCC[C@H](NC(=O)c1ccc(CCc2ccccc2-c2ccccc2)cc1-c1ccccc1C)C(=O)[O-].[Li+] [Example 452],96%
7,CSCC[C@H](NC(=O)c1ccc(C=Cc2ccccc2Oc2ccccc2)cc1-c1ccccc1C)C(=O)[O-].[Li+] [Example 453],90%
8,CSCC[C@H](NC(=O)c1ccc(C=Cc2ccccc2Cc2ccccc2)cc1-c1ccccc1C)C(=O)[O-].[Li+] [Example 457],92%
9,CSCC[C@H](NC(=O)c1ccc(CCc2cccc3ccccc23)cc1-c1ccccc1C)C(=O)[O-].[Li+] [Example 467],97%
10,CSCC[C@H](NC(=O)c1ccc(CCCc2ccc3ccccc3c2)cc1-c1ccccc1C)C(=O)[O-].[Li+] [Example 470],95%

# Results, then the molecule that gave them:
row,% inhibition of farnesyltransferase,SMILES
1,98%,CSCC[C@H](NC(=O)c1ccc(COCCC23CC4CC(CC(C4)C2)C3)cc1-c1ccccc1C)C(=O)O [Example 404]
2,98%,CSCC[C@H](NC(=O)c1ccc(COCCCC2CCCCC2)cc1-c1ccccc1C)C(=O)O [Example 405]
3,96%,CSCC[C@H](NC(=O)c1ccc(COCc2ccc(CN(C)C)o2)cc1-c1ccccc1C)C(=O)O [Example 435]
4,81%,Cc1ccccc1-c1cc(CCc2ccccc2Oc2ccccc2)ccc1C(=O)N[C@@H](CC[S+](C)[O-])C(=O)O (stereo partly shown) [Example 456]
5,88%,Cc1ccccc1-c1cc(CCc2cccc(Oc3ccccc3)c2)ccc1C(=O)N[C@@H](CC[S+](C)[O-])C(=O)O (stereo partly shown) [Example 460]
6,91%,Cc1ccccc1-c1cc(CCc2ccc(Oc3ccccc3)cc2)ccc1C(=O)N[C@@H](CC[S+](C)[O-])C(=O)O (stereo partly shown) [Example 463]
7,92%,CSCC[C@H](NC(=O)c1ccc(/C=C/c2ccc3ccccc3c2)cc1-c1ccccc1C)C(=O)O [Example 465]
8,93%,CSCC[C@H](NC(=O)c1ccc(/C=C/c2cccc3ccccc23)cc1-c1ccccc1C)C(=O)O [Example 466]
9,96%,CSCC[C@H](NC(=O)c1ccc(CCc2ccc3ccccc3c2)cc1-c1ccccc1C)C(=O)O [Example 468]
10,92%,CSCC[C@H](NC(=O)c1ccc(C=CCc2ccccc2)cc1-c1ccccc1C)C(=O)O [Example 469]
11,94%,CSCC[C@H](NC(=O)c1ccc(/C=C/CC2CCCCC2)cc1-c1ccccc1C)C(=O)O [Example 471]
12,97%,CSCC[C@H](NC(=O)c1ccc(/C=C/CCc2ccccc2)cc1-c1ccccc1C)C(=O)O [Example 472]
13,96%,CSCC[C@H](NC(=O)c1ccc(CCCC(=O)c2ccc3ccccc3c2)cc1-c1ccccc1C)C(=O)O [Example 473]
14,92%,CSCC[C@H](NC(=O)c1ccc(/C=C/CC(O)c2ccc3ccccc3c2)cc1-c1ccccc1C)C(=O)O (stereo partly shown) [Example 474]

# Same assay, conditions: at 1 × 10^-6 M; read-out: % inhibition of farnesyltransferase
row,SMILES,inhibition at 1 µM
1,"CCSC[C@H](CC1CCCCC1)NCc1ccc(C(=O)N[C@@H](CCSC)C(=O)O)c(-c2ccccc2C)c1 [Example 403, [4-(1-ethylthio-3-cyclohexylprop-2-ylaminomethyl)-2-(2-methylphenyl)benzoyl]methionine]",99%
2,"CSCC[C@H](NC(=O)c1ccc(CN(Cc2ccccc2)c2ccccc2)cc1-c1ccccc1C)C(=O)O [Example 406, 4-(N-benzyl-N-phenyl)-aminomethyl-2-(2-methylphenyl)benzoylmethionine]",95%

# Same assay, conditions: at 1 × 10^-7 M
row,SMILES,% inhibition of farnesyltransferase
1,CSCC[C@H](NC(=O)c1ccc(COCc2ccc(Br)o2)cc1-c1ccccc1C)C(=O)[O-].[Li+] [Example 434],93%
2,CSCC[C@H](NC(=O)c1ccc(COCc2ccc(-c3cccc(F)c3)o2)cc1-c1ccccc1C)C(=O)[O-].[Li+] [Example 436],89%
3,CSCC[C@H](NC(=O)c1ccc(COCc2ccc(-c3ccccc3F)o2)cc1-c1ccccc1C)C(=O)[O-].[Li+] [Example 437],89%
4,CSCC[C@H](NC(=O)c1ccc(COCc2ccc(-c3ccccc3C(F)(F)F)o2)cc1-c1ccccc1C)C(=O)[O-].[Li+] [Example 438],90%
5,CSCC[C@H](NC(=O)c1ccc(COCc2ccc(-c3cccc([N+](=O)[O-])c3)o2)cc1-c1ccccc1C)C(=O)[O-].[Li+] [Example 440],92%
6,CSCC[C@H](NC(=O)c1ccc(COCc2ccc(-c3cccc(C(F)(F)F)c3)o2)cc1-c1ccccc1C)C(=O)[O-].[Li+] [Example 441],91%
7,COc1cccc(-c2ccc(COCc3ccc(C(=O)N[C@@H](CCSC)C(=O)[O-])c(-c4ccccc4C)c3)o2)c1.[Li+] [Example 442],88%
8,CSCC[C@H](NC(=O)c1ccc(COCc2ccc(-c3ccc(Cl)cc3)o2)cc1-c1ccccc1C)C(=O)O [Example 443],97%
9,CSCC[C@H](NC(=O)c1ccc(COCc2ccc(-c3ccc(C(F)(F)F)cc3)o2)cc1-c1ccccc1C)C(=O)[O-].[Li+] [Example 445],94%
10,COc1ccc(-c2ccc(COCc3ccc(C(=O)N[C@@H](CCSC)C(=O)[O-])c(-c4ccccc4C)c3)o2)cc1.[Li+] [Example 446],91%
11,CSCC[C@H](NC(=O)c1ccc(COCc2ccc(-c3ccc(SC)cc3)o2)cc1-c1ccccc1C)C(=O)[O-].[Li+] [Example 447],91%
12,CSCC[C@H](NC(=O)c1ccc(COCc2ccc(-c3ccc(C=O)cc3)o2)cc1-c1ccccc1C)C(=O)[O-].[Li+] [Example 448],92%
13,CSCC[C@H](NC(=O)c1ccc(COCc2ccc(-c3ccc(C(C)=O)cc3)o2)cc1-c1ccccc1C)C(=O)[O-].[Li+] [Example 449],91%
14,CSCC[C@H](NC(=O)c1ccc(CCc2ccccc2Oc2ccccc2)cc1-c1ccccc1C)C(=O)[O-].[Li+] [Example 455],83%
15,CSCC[C@H](NC(=O)c1ccc(CCc2ccccc2Cc2ccccc2)cc1-c1ccccc1C)C(=O)O [Example 458],87%
16,CSCC[C@H](NC(=O)c1ccc(CCc2cccc(Oc3ccccc3)c2)cc1-c1ccccc1C)C(=O)[O-].[Li+] [Example 459],92%
17,CSCC[C@H](NC(=O)c1ccc(CCc2ccc(C3CCCCC3)cc2)cc1-c1ccccc1C)C(=O)[O-].[Li+] [Example 461],93%
18,CSCC[C@H](NC(=O)c1ccc(CCc2ccc(Oc3ccccc3)cc2)cc1-c1ccccc1C)C(=O)[O-].[Li+] [Example 462],91%
